Results from patent US20260250320A1, “LIPIDATED PEPTIDE INHIBITORS OF INTERLEUKIN-23 RECEPTOR” (Janssen Pharmaceutica NV, priority 2023, published 2026).
*1 amine or outer side, *2 acyl side, *3 side chain or, on linkers, in order; H or OH if unused. Where a SMILES comes first, the peptide text is derived from it. Bridges are numbered along the chain shown (N, C = ends). Side-chain parts run from the residue outwards. [ ]: non-standard residue; d: D form. The star is where a group is joined. ξ: configuration not given here. Me3N+CH2CH2(OCH2CH2)4CO = C[N+](C)(C)CCOCCOCCOCCOCCC(=O)*; Me3N+(CH2)2O(CH2)2O(CH2)2CO = C[N+](C)(C)CCOCCOCCC(=O)*; X24 = O=C(O)CCCCCCCCCCCCCCCCCN[C@@H](CCC(=O)*)C(=O)O; Trp(7-Me) = Cc1cccc2c(C[C@H](N)C(=O)O)c[nH]c12; C20 diacid = O=C(O)CCCCCCCCCCCCCCCCCCC(=O)*; Hexanoyl(6-NMe3+) = C[N+](C)(C)CCCCCC(=O)*; C18 diacid = O=C(O)CCCCCCCCCCCCCCCCC(=O)*; γGlu = O=C(O)[C@H](CCC(=O)[*:2])N[*:1]; 2Nal = N[C@@H](Cc1ccc2ccccc2c1)C(=O)O; AEF = NCCOc1ccc(C[C@H](N)C(=O)O)cc1; X2 = C[N+](C)(C)C[C@@H](CC(=O)O)N*; ξAEF = NCCOc1ccc(CC(N)C(=O)O)cc1; 3Pal = N[C@@H](Cc1cccnc1)C(=O)O; Lys(Me) = CNCCCC[C@H](N)C(=O)O; NMeK = CN[C@@H](CCCCN)C(=O)O; Pen = CC(C)(S)[C@H](N)C(=O)O; Suc = O=C(CCC(=O)[*:2])[*:1]; Thp = NC1(C(=O)O)CCOCC1; Abu = CC[C@H](N)C(=O)O; AEEA = NCCOCCOCC(=O)O; Sar = CNCC(=O)O

Tests used:
IL-23R = molecular target: T1, IL-23R (Homo sapiens, UniProt Q5VWK5); assay: IL23R Reporter Assay; assay type: cell-based; conditions: HEK293 cells containing IL-23R, IL-12Rβ1 and STAT-inducible firefly luciferase reporter; 10 ng/mL IL-23 (EC90); 5 h
T1 construct: HEK293 cells containing IL-23R, IL-12Rβ1 and a firefly luciferase reporter gene driven by a STAT-inducible promoter (Promega); host or cells: HEK293
T1 sequence (Q5VWK5 24-629): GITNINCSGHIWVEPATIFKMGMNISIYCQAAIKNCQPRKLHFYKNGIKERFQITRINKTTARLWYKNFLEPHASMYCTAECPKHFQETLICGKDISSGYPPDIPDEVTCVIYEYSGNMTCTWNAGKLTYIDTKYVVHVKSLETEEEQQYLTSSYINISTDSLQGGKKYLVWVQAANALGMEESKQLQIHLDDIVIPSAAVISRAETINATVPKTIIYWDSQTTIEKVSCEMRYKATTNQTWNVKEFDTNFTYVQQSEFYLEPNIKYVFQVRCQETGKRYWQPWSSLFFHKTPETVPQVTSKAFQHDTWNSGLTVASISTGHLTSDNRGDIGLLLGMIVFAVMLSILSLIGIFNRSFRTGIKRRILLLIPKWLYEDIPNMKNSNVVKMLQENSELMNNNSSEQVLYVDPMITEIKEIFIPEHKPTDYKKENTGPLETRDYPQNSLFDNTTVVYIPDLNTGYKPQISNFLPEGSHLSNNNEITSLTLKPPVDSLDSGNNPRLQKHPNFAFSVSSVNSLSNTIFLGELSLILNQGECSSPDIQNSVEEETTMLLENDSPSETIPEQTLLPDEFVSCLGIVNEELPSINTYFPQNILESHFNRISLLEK
Summary of the method: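 HEK293 cells carrying IL-23R, IL-12Rβ1 and a STAT-driven firefly luciferase reporter (4000 cells/well) received compound, then 10 ng/mL IL-23 solution (EC90), and were incubated for 5 h at 37° C. BioGlo luminescence was normalised to IL-23 alone (0%) and 30 μM control inhibitor (100%). IC50 came from a 4-parameter Hill fit.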

[1] = system: IL-23-stimulated phosphorylated STAT3 in peripheral blood mononuclear cells (PBMCs); assay: PBMC pSTAT3 Assay; assay type: cell-based; conditions: PBMCs from healthy donors; 30 min preincubation with peptide; IL-23 5 ng/mL for 30 min; phospho-STAT3 by MSD
Summary of the method: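 Healthy-donor PBMCs expanded 4 days on anti-CD3 with 100 ng/mL IL-1β, starved ~4 h in RPMI-0.1% BSA, preincubated 30 min with peptide, then stimulated 30 min at 37 °C with 5 ng/mL IL-23. Lysate pSTAT3 measured by MSD phospho-STAT panel; IC50 derived.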

| Structure (SMILES) | IC50 (IL-23R) [nM] | IC50 [1] [nM] |
| --- | --- | --- |
| CC[C@@H]1NC(=O)[C@H](Cc2c[nH]c3c(C)cccc23)NC(=O)[C@H]([C@@H](C)O)NC(=O)[C@H](CC(=O)N(C)C)NC(=O)[C@@H](NC(=O)CCOCCOCCOCCOCC[N+](C)(C)C)C(C)(C)SSC(C)(C)[C@@H](C(=O)NC(Cc2ccc(OCCN)cc2)C(=O)N[C@@H](Cc2ccc3ccccc3c2)C(=O)NC2(C(=O)N[C@@H](CCC(=O)O)C(=O)N[C@@H](CC(N)=O)C(=O)N[C@@H](Cc3cccnc3)C(=O)N(C)[C@@H](CCCCNC(=O)COCCOCCNC(=O)COCCOCCNC(=O)CC[C@H](NC(=O)CCCCCCCCCCCCCCCCCCC(=O)O)C(=O)O)C(N)=O)CCOCC2)NC1=O (some centres unmarked) [compound 152, cPEG5aCO-Pen(3)-N(N(Me)2)-T-7MeW-Dab(NMecPEG5A)-Pen(3)-AEF-2Nal-THP-E-N-3Pya-NMeK(PEG2PEG2gEC20OH)-CONH2] ({Me3N+CH2CH2(OCH2CH2)4CO}-[Pen]D(NMe2)T[Trp(7-Me)][Abu][Pen][ξAEF][2Nal][Thp]EN[3Pal][NMeK]([AEEA-AEEA-γGlu-C20 diacid])-NH2; disulfide 1-6) | 50 to 500 | < 0.5 |
| Cc1cccc2c(C[C@@H]3NC(=O)[C@H]([C@@H](C)O)NC(=O)[C@H](CC(N)=O)NC(=O)[C@@H](NC(=O)[C@@H](CCCNC(=N)N)NC(=O)CCCCC[N+](C)(C)C)C(C)(C)SSC(C)(C)[C@@H](C(=O)N[C@@H](Cc4ccc(OCCN)cc4)C(=O)N[C@@H](Cc4ccc5ccccc5c4)C(=O)NC4(C(=O)N[C@@H](CCC(=O)O)C(=O)N[C@@H](CC(N)=O)C(=O)N[C@@H](Cc5cccnc5)C(=O)N(C)CC(N)=O)CCOCC4)NC(=O)[C@H](CCCCNC(=O)COCCOCCNC(=O)COCCOCCNC(=O)CC[C@H](NCCCCCCCCCCCCCCCCCC(=O)O)C(=O)O)NC3=O)c[nH]c12 [compound 71, 5cpaCO-r-Pen(3)-N-T-7MeW-K(PEG2PEG2C18OH)-Pen(3)-AEF-2Nal-THP-E-N-3Pya-Sar-CONH2] ({Hexanoyl(6-NMe3+)}-[dR][Pen]NT[Trp(7-Me)]K([AEEA-AEEA-X24])[Pen][AEF][2Nal][Thp]EN[3Pal][Sar]-NH2; disulfide 2-7) | 50 to 500 | < 0.5 |
| CC(=O)NCCCC[C@@H]1NC(=O)[C@H](Cc2c[nH]c3c(C)cccc23)NC(=O)[C@H]([C@@H](C)O)NC(=O)[C@H](CC(N)=O)NC(=O)[C@@H](NC(=O)[C@@H](CCCNC(=N)N)NC(C)=O)C(C)(C)SSC(C)(C)[C@@H](C(=O)N[C@@H](Cc2ccc(OCCN)cc2)C(=O)N[C@@H](Cc2ccc3ccccc3c2)C(=O)NC2(C(=O)N[C@@H](CCCCNC(=O)COCCOCCNC(=O)COCCOCCNC(=O)CC[C@H](NC(=O)CCCCCCCCCCCCCCCCC(=O)O)C(=O)O)C(=O)N[C@@H](CC(N)=O)C(=O)N[C@@H](Cc3cccnc3)C(=O)N(C)[C@@H](CCCCNC(=O)CCC(=O)N[C@H](CC(=O)O)C[N+](C)(C)C)C(N)=O)CCOCC2)NC1=O [compound 21, MeCO-r-Pen(3)-N-T-7MeW-K(Ac)-Pen(3)-AEF-2Nal-THP-K(PEG2PEG2gEC18OH)-N-3Pya-NMeK(d)-CONH2] (Ac-[dR][Pen]NT[Trp(7-Me)]K(Ac)[Pen][AEF][2Nal][Thp]K([AEEA-AEEA-γGlu-C18 diacid])N[3Pal][NMeK]([Suc-X2])-NH2; disulfide 2-7) | < 50 | < 0.5 |
| CC(=O)N[C@H](CCCNC(=N)N)C(=O)N[C@@H]1C(=O)N[C@@H](CCCCNC(=O)COCCOCCNC(=O)COCCOCCNC(=O)CC[C@H](NC(=O)CCCCCCCCCCCCCCCCC(=O)O)C(=O)O)C(=O)N[C@@H]([C@@H](C)O)C(=O)N[C@@H](Cc2c[nH]c3c(C)cccc23)C(=O)N[C@@H](CCCCN(C)C(=O)CCOCCOCC[N+](C)(C)C)C(=O)N[C@H](C(=O)N[C@@H](Cc2ccc(OCCN)cc2)C(=O)N[C@@H](Cc2ccc3ccccc3c2)C(=O)NC2(C(=O)N[C@@H](CCC(=O)O)C(=O)N[C@@H](CC(N)=O)C(=O)N[C@@H](Cc3cccnc3)C(=O)N(C)CC(N)=O)CCOCC2)C(C)(C)SSC1(C)C [compound 77, 5cpaCO-Pen(3)-N-T-7MeW-K(Ac)-Pen(3)-AEF-2Nal-THP-K(PEG2PEG2gEC18OH)-N-3Pya-Sar-CONH2] (Ac-[dR][Pen]K([AEEA-AEEA-γGlu-C18 diacid])T[Trp(7-Me)][Lys(Me)](Me3N+(CH2)2O(CH2)2O(CH2)2CO)[Pen][AEF][2Nal][Thp]EN[3Pal][Sar]-NH2; disulfide 2-7) | 50 to 500 | < 0.5 |
